pIC50: −log10 of the molar value.
Key:
human SGLT1 = target: T1, human SGLT1 (Homo sapiens, UniProt P13866); experiment: SGLT1 assay: Na-dependent 14C-AMG uptake in CHO-K1 cells stably expressing human SGLT1; assay type: cell-based; details: for SGLT1 %-inhibition / inhibition at 0.3 µM: @ 0.3 μM; for pIC50: average if tested more than once
T1 construct: expressed in transfected cells
T1 sequence (P13866 1-664): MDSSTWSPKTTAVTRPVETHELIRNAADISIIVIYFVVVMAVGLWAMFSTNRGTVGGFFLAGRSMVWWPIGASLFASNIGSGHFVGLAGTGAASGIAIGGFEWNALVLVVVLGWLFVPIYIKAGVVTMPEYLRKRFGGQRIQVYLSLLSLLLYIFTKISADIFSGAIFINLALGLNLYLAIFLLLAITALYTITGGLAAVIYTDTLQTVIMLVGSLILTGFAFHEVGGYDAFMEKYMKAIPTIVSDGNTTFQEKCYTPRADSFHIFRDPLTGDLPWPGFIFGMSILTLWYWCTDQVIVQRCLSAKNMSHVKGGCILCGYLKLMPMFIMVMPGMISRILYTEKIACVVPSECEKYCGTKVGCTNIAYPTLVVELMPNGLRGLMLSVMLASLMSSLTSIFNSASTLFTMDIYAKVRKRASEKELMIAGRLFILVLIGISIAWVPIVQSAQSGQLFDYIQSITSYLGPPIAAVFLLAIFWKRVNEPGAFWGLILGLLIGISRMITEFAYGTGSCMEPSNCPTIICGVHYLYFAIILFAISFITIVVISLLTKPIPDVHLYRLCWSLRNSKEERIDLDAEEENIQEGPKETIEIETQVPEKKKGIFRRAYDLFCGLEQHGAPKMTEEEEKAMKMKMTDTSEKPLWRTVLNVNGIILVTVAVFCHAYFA
Experimental: (§1) The ability of the compounds of formula (I) of the present invention to treat an SGLT-mediated condition was determined using the following procedures:
(§2) SGLT1 and SGLT2 were cloned in form of cDNA from human small intestine (Genbank M24847), and from human kidney (Genbank M95549), respectively. Subsequently, each full cDNA was subcloned into pcDNA with each construct's integrity verified through follow-on sequencing. To generate CHO-K1 cells that stably express human SGLT1 or human SGLT2, CHO-K1 cells were transfected using DMRIE-C reagent (Life Technologies, Gaithersburg, Md.). Transfected cells were then selected in the presence of 500 μg/ml of the Geneticin (G418 Cellgro Catalog No. 30234-Cl)
(§3) Individual clones were then characterized using the following cell-based assay for sodium-dependent glucose transport:
(§4) Inhibition of SGLT1 and SGLT2 activity was assessed in CHO K1 cells stably expressing either human SGLT1 or SGLT2, using the SGLT specific glucose analog methyl-glucopyranoside (Sigma Catalog No. M-9376). Cells were plated (45,000 cells/well) in white wall 96-well plates (COSTAR, Cat #3903) for 24 hours in growth medium, then a final concentration of 10 mM Na-Butyrate (ALDRICH Cat #30341-0) was added. The cells were incubated for 24 hours. On the day of the assay, cells were rinsed and treated with test compounds (at concentrations of 0.001 μM to 10 μM) in assay buffer (50 mM HEPES, 20 mM Tris base, 5 mM KCl, 1 mM MgCl2, 1 mM CaCl2 and 137 mM NaCl, pH 7.4) for 10 minutes. Cells were then incubated with ^14C-a-methyl-d-glucopyranoside (AMG, Amersham Catalog No. CFB 76), using 0.07 μCi per well in 500 μM AMG final concentration. The cells were incubated for 2 hours at 37° C. with 5% CO2 and washed two times with ice-cold Phosphate Buffer Solution (Cellgro Catalog No. 21030-CV). The cells were then solubilized by adding 60 μl of MICROSCINT™20 and the Na-dependent ^14C-AMG uptake was quantified by measuring radioactivity. Plates were counted in a TopCount (Packard, Meriden, Conn.)
(§5) Representative compounds of the present invention were tested according to the procedures as described in Biological Example 1 and 2 above, with results as listed in Table 5, below. Results are reported as the %-inhibition or IC50 value. Variability for the functional assay was typically within 20%.

human SGLT2 = target: T2, human SGLT2 (Homo sapiens, UniProt P31639); experiment: SGLT2 assay: Na-dependent 14C-AMG uptake in CHO-K1 cells stably expressing human SGLT2; assay type: cell-based; details: for SGLT2 %-inhibition / inhibition at 0.3 µM: @ 0.3 μM; for pIC50: average if tested more than once
T2 construct: expressed in transfected cells
T2 sequence (P31639 1-672): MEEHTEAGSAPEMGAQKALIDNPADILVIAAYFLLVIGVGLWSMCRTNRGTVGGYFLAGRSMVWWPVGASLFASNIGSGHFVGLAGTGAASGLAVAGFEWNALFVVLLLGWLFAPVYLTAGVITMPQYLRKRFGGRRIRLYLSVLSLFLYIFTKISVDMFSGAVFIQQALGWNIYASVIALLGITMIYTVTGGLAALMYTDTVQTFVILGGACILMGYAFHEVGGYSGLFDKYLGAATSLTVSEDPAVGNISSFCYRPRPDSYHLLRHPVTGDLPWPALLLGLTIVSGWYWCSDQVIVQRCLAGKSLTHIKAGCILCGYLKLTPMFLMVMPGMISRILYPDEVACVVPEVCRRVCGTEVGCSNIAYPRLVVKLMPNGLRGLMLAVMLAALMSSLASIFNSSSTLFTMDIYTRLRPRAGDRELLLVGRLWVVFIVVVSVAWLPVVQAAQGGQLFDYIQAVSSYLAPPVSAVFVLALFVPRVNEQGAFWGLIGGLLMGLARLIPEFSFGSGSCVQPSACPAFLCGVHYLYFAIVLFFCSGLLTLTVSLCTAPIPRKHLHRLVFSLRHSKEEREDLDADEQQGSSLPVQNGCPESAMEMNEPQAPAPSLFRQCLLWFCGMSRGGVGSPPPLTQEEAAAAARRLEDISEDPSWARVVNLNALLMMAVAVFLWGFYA
Experimental: as §1, §2, §3, §4, §5

SGLT1 %-inhibition (human SGLT1) | SGLT2 %-inhibition (human SGLT2) | SMILES | also measured
65.5% @ 0.3 μM | 65.2% @ 0.3 μM | CC(=O)N1CCc2sc(Cc3cc([C@@H]4O[C@H](CO)[C@@H](F)[C@H](O)[C@H]4O)c(O)cc3Cl)cc2C1 [Compound 74] | 
 |  | OCC1COc2c(Cc3ccc4c(c3)OCCO4)cc([C@@H]3O[C@H](CO)[C@@H](F)[C@H](O)[C@H]3O)cc21 (stereo partly drawn) [Compound 75, (2S,3R,4R,5S,6R)-2-(7-((2,3-dihydrobenzo[b][1,4]dioxin-6-yl)methyl)-3-(hydroxymethyl)-2,3-dihydrobenzofuran-5-yl)-5-fluoro-6-(hydroxymethyl)-tetrahydro-2H-pyran-3,4-diol] | inhibition at 0.3 µM (human SGLT1): 61.9%; inhibition at 0.3 µM (human SGLT2): 43.7%
28.6% @ 0.3 μM | 72.2% @ 0.3 μM | COC(=O)N1CCc2sc(Cc3cc([C@@H]4O[C@H](CO)[C@@H](F)[C@H](O)[C@H]4O)c(OC)cc3Cl)cc2C1 [Compound 76] | 
30.3% @ 0.3 μM | 69.9% @ 0.3 μM | COc1cc(Cl)c(Cc2cc3c(s2)CCN(C(C)=O)C3)cc1[C@@H]1O[C@H](CO)[C@@H](F)[C@H](O)[C@H]1O [Compound 77] | 
28.4% @ 0.3 μM | 86.9% @ 0.3 μM | Cc1ccc([C@@H]2O[C@H](CO)[C@@H](F)[C@H](O)[C@H]2O)cc1Cc1cc2c(s1)CCN(C(=O)N1CCCC1)C2 [Compound 78] | 
 |  | COc1cc(O)c([C@@H]2O[C@H](CO)[C@@H](F)[C@H](O)[C@H]2O)cc1Cc1cc2c(s1)CCN(C(C)=O)C2 [Compound 79] | pIC50 (human SGLT1): 6.90; pIC50 (human SGLT2): 6.86
37.4% @ 0.3 μM | 60.4% @ 0.3 μM | COC(=O)N1CCc2sc(Cc3cc([C@@H]4O[C@H](CO)[C@@H](F)[C@H](O)[C@H]4O)ccc3Cl)cc2C1 [Compound 80] | 
 |  | COc1cc(C)c(Cc2cc3c(s2)CCN(C(=O)N2CCCC2)C3)cc1[C@@H]1O[C@H](CO)[C@@H](F)[C@H](O)[C@H]1O [Compound 81] | pIC50 (human SGLT1): 6.65; pIC50 (human SGLT2): 7.96
42.2% @ 0.3 μM | 58.9% @ 0.3 μM | COc1cc(OC)c([C@@H]2O[C@H](CO)[C@@H](F)[C@H](O)[C@H]2O)cc1Cc1cc2c(s1)CCN(C(C)=O)C2 [Compound 82] | 
17.4% @ 0.3 μM | 72.3% @ 0.3 μM | COC(=O)N1CCc2sc(Cc3cc([C@@H]4O[C@H](CO)[C@@H](F)[C@H](O)[C@H]4O)c(OC)cc3OC)cc2C1 [Compound 83] | 
 |  | Cc1cc(O)c([C@@H]2O[C@H](CO)[C@@H](F)[C@H](O)[C@H]2O)cc1Cc1cc2c(s1)CCN(C(=O)c1nccs1)C2 [Compound 84, (2-(5-((2S,3R,4R,5S,6R)-5-fluoro-3,4-dihydroxy-6-(hydroxymethyl)-tetrahydro-2H-pyran-2-yl)-4-hydroxy-2-methylbenzyl)-6,7-dihydrothieno[3,2-c]pyridin-5(4H)-yl)(thiazol-2-yl)methanone] | pIC50 (human SGLT1): 7.00; pIC50 (human SGLT2): 7.44
37.4% @ 0.3 μM | 10.1% @ 0.3 μM | CC1(C)Oc2c(Cc3ccc4c(c3)OCCO4)cc([C@@H]3O[C@H](CO)[C@@H](F)[C@H](O)[C@H]3O)cc2C1CO (stereo partly drawn) [Compound 85] | 
 |  | Cc1cc(O)c([C@@H]2O[C@H](CO)[C@@H](F)[C@H](O)[C@H]2O)cc1Cc1cc2c(s1)CCN(C(=O)C1CCCC1)C2 [Compound 86, Cyclopentyl(2-(5-((2S,3R,4R,5S,6R)-5-fluoro-3,4-dihydroxy-6-(hydroxymethyl)-tetrahydro-2H-pyran-2-yl)-4-hydroxy-2-methylbenzyl)-6,7-dihydrothieno[3,2-c]pyridin-5(4H)-yl)methanone] | pIC50 (human SGLT1): 6.54; pIC50 (human SGLT2): 7.42
48.7% @ 0.3 μM | 59.0% @ 0.3 μM | Cc1ccc([C@@H]2O[C@H](CO)[C@@H](F)[C@H](O)[C@H]2O)cc1Cc1cc2c(s1)CCN(C(=O)C1CCCC1)C2 [Compound 87] | 
42.5% @ 0.3 μM | 44.8% @ 0.3 μM | CC1(CO)COc2c(Cc3ccc4c(c3)OCCO4)cc([C@@H]3O[C@H](CO)[C@@H](F)[C@H](O)[C@H]3O)cc21 (stereo partly drawn) [Compound 88] | 
 |  | OC[C@H]1O[C@@H](c2cc3c(c(Cc4ccc5c(c4)NCCC5)c2)OCC3)[C@H](O)[C@@H](O)[C@@H]1F [Compound 89] | pIC50 (human SGLT1): 7.38; pIC50 (human SGLT2): 7.00
31.7% @ 0.3 μM | 65.5% @ 0.3 μM | COc1cc(C)c(Cc2cc3c(s2)CCN(C(=O)C2CCCC2)C3)cc1[C@@H]1O[C@H](CO)[C@@H](F)[C@H](O)[C@H]1O [Compound 91] | 
 |  | Cc1ccc([C@@H]2O[C@H](CO)[C@@H](F)[C@H](O)[C@H]2O)cc1Cc1cc2c(s1)CCN(C#N)C2 [Compound 92, 2-(5-((2S,3R,4R,5S,6R)-5-fluoro-3,4-dihydroxy-6-(hydroxymethyl)-tetrahydro-2H-pyran-2-yl)-2-methylbenzyl)-6,7-dihydrothieno[3,2-c]pyridine-5(4H)-carbonitrile] | inhibition at 0.3 µM (human SGLT1): 29%; inhibition at 0.3 µM (human SGLT2): 76.2%
33.6% @ 0.3 μM | 42.3% @ 0.3 μM | OCCC1COc2c(Cc3ccc4c(c3)OCCO4)cc([C@@H]3O[C@H](CO)[C@@H](F)[C@H](O)[C@H]3O)cc21 (stereo partly drawn) [Compound 93] | 
32.6% @ 0.3 μM | 19.2% @ 0.3 μM | CN1CCCc2ccc(Cc3cc([C@@H]4O[C@H](CO)[C@@H](F)[C@H](O)[C@H]4O)cc4c3OCC4)cc21 [Compound 94] | 
29.1% @ 0.3 μM | 18.2% @ 0.3 μM | COc1cc(Cl)c(Cc2cc3c(s2)CCN(C(=O)N2CCCC2)C3)cc1[C@@H]1O[C@H](CO)[C@@H](F)[C@H](O)[C@H]1O [Compound 96] | 
31.2% @ 0.3 μM | 67.9% @ 0.3 μM | O=C1COc2cc(Cc3cc([C@@H]4O[C@H](CO)[C@@H](F)[C@H](O)[C@H]4O)cc4c3OCC4)ccc2N1 [Compound 97] | 
 |  | OC[C@H]1O[C@@H](c2cc(Cc3ccc4c(c3)OCCO4)c(O)c3c2OCC3)[C@H](O)[C@@H](O)[C@@H]1F [Compound 98, (2S,3R,4R,5S,6R)-2-[5-(2,3-dihydro-1,4-benzodioxin-6-ylmethyl)-4-hydroxy-2,3-dihydrobenzofuran-7-yl]-5-fluoro-6-(hydroxymethyl)tetrahydropyran-3,4-diol] | inhibition at 0.3 µM (human SGLT1): 30.9%; inhibition at 0.3 µM (human SGLT2): 26%
28.9% @ 0.3 μM | 83.5% @ 0.3 μM | COc1cc(Cl)c(Cc2cc3c(s2)CCN(C#N)C3)cc1[C@@H]1O[C@H](CO)[C@@H](F)[C@H](O)[C@H]1O [Compound 99] | 
